Experimental findings from BindingDB's records for doi:10.1016/0968-0896(96)00134-4 (Parke-Davis Pharmaceutical Research, 1996) are described below.

SMILES strings stand for the structures.

For the first experiment, the target named is T1, Dimer of Gag-Pol polyprotein [489-587] (Human immunodeficiency virus 1, UniProt P12497).
T1 construct: 489-587
The experiment is described as follows: Protease Inhibition Assay. Particulars: pH 4.7; 37 °C. How it is done:
For determination of IC50 values, HIV-1 protease was added to assay buffer containing inhibitor and the substrate (H-His-Lys-Ala-Arg-Val-Leu- (p-NO2) Phe-Glu-Ala-norleucine-Ser-NH2). The Leu- (p-NO2) Phe bond of the substrate was cleaved by the enzyme, and the substrate and products were separated by reversed-phase HPLC. Absorbance was measured at 220 nm, peak areas were determined, and percentage conversion to product was calculated.
In general, IC50 refers to the concentration that gives 50% inhibition. Take `O=c1oc(-c2ccccc2)cc(O)c1Sc1ccccc1`: the IC50 stood at 3000 nM.

The compound `O=C(CCCCC1CCCCC1)OCC(O)C1OC(=O)C(O)C1=O` (stereo unspecified) [2-(3,4-dihydroxy-5-oxo-2,5-dihydrofuran-2-yl)-2-hydroxyethyl 5-cyclohexylpentanoate] displayed an IC50 of 29000 nM.

For the compound `O=C(O)c1cc(-c2ccc(Cl)cc2)nc2cc(O)ccc12` [2-(4-chlorophenyl)-7-hydroxyquinoline-4-carboxylic acid], inhibition was half-maximal at 6900 nM (IC50).

For `O=C(O)COc1ccc(-c2cc(O)c(SCCc3ccccc3)c(=O)o2)cc1` [2-(4-{4-hydroxy-2-oxo-3-[(2-phenylethyl)sulfanyl]-2H-pyran-6-yl}phenoxy)acetic acid], half-maximal inhibition (IC50) required 160 nM.

Regarding `O=C(CCc1ccc(Br)cc1)c1ccc(CC(=O)c2ccccc2-c2ccccc2C(=O)O)cc1` [2-[2-(2-{4-[3-(4-bromophenyl)propanoyl]phenyl}acetyl)phenyl]benzoic acid], the IC50 amounted to 19000 nM.

Consider `O=C(O)c1cc(O)c(O)cc1C(=O)c1cc(Cl)ccc1Cl` [2-[(2,5-dichlorophenyl)carbonyl]-4,5-dihydroxybenzoic acid], for which the IC50 was determined as 8100 nM.

Take `O=c1oc(-c2ccccc2)cc(O)c1SCc1ccccc1` [3-(benzylsulfanyl)-4-hydroxy-6-phenyl-2H-pyran-2-one]: the IC50 was found to be 1700 nM.

`Cc1cccc(-c2cc(O)c(Sc3ccccc3C(C)(C)C)c(=O)o2)c1` [3-[(2-tert-butylphenyl)sulfanyl]-4-hydroxy-6-(3-methylphenyl)-2H-pyran-2-one] displayed an IC50 of 7 nM.

Take `CC(C)(C)c1ccccc1Sc1c(O)cc(-c2ccccc2)oc1=O` [3-[(2-tert-butylphenyl)sulfanyl]-4-hydroxy-6-phenyl-2H-pyran-2-one]: the IC50 turned out to be 17 nM.

`O=c1oc2ccccc2c(O)c1Cc1ccccc1` [3-benzyl-4-hydroxy-2H-chromen-2-one] showed an IC50 of 120000 nM.

Turning to `Cc1ccccc1Sc1c(O)cc(-c2ccccc2)oc1=O` [4-hydroxy-3-[(2-methylphenyl)sulfanyl]-6-phenyl-2H-pyran-2-one], the IC50 was 420 nM.

In turn, `O=c1oc(-c2ccc(O)cc2)cc(O)c1SCCc1ccccc1` [4-hydroxy-6-(4-hydroxyphenyl)-3-[(2-phenylethyl)sulfanyl]-2H-pyran-2-one] registered a 50% inhibitory concentration (IC50) of 520 nM.

Take `O=c1oc(-c2ccccc2)cc(O)c1SCCc1ccccc1` [4-hydroxy-6-phenyl-3-[(2-phenylethyl)sulfanyl]-2H-pyran-2-one]: the IC50 came to 1300 nM.

As for `CC(C)c1ccccc1Sc1c(O)cc(-c2ccccc2)oc1=O` [4-hydroxy-6-phenyl-3-{[2-(propan-2-yl)phenyl]sulfanyl}-2H-pyran-2-one], inhibition was half-maximal at 37 nM (IC50).

As for `O=c1cc(Cc2cccc(Cl)c2)[nH][nH]1` [5-[(3-chlorophenyl)methyl]-2,3-dihydro-1H-pyrazol-3-one], 29000 nM corresponded to half-maximal inhibition (IC50).

Still in this experiment, the particulars now being: pH 6.2; 37 °C.
Regarding `CC(C)c1ccccc1Sc1c(O)cc(-c2ccccc2)oc1=O` [4-hydroxy-6-phenyl-3-{[2-(propan-2-yl)phenyl]sulfanyl}-2H-pyran-2-one], the IC50 stood at 690 nM.
